Results from US8987193B2, “Nisin derivatives and the use thereof” (University College Cork—National University of Ireland, Cork, priority 2008, dated 2015).
Ends that are not written are not given here.

Experiments:
[1] = tested on: Staph. aureus DPC5245; test: Deferred antagonism assay; format: cell-based; details: producing strain; diameter of zone minus 5 mm; average of duplicates; St. aureus DPC5245
Summary of the method: (§1)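 Producer strains replicated on GM17 agar, grown overnight, then overlaid with soft agar (0.75% w/v) seeded with indicator strain. Zone size = clearing diameter minus 5 mm growth diameter, relative to NZ9800 pCI372nisA control; mean of duplicates.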

[2] = tested on: Staph. aureus ST528 (MRSA); test: Deferred antagonism assay; format: cell-based; details: producing strain, diameter of zone minus diameter of bacterial growth (5 mm), average of duplicates
Summary of the method: as §1

[3] = tested on: Strep. agalactiae ATCC13813; test: Deferred antagonism assay; format: cell-based; details: producing strain, diameter of zone minus 5 mm, average of duplicates
[4] = tested on: L. monocytogenes CBC1; test: Deferred antagonism assay; format: cell-based, Listeria monocytogenes; design: key: + = Enhanced bioactivity relative to control; − = Bioactivity equal to or less than control; NA = no activity evident; details: producing strain; L. mono CBC1
Summary of the method: (§2)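 L. lactis NZ9800 strains expressing nisin A hinge variants were replicated or spotted on GM17 agar, grown overnight, then overlaid with 0.75% w/v agar seeded with indicator. Zone size is the clearing diameter minus 5 mm colony growth.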

[5] = tested on: L. monocytogenes CBC2; test: Deferred antagonism assay; format: cell-based, Listeria monocytogenes; design: key: + = Enhanced bioactivity relative to control; − = Bioactivity equal to or less than control; NA = no activity evident; details: producing strain; L. mono CBC2
Summary of the method: as §2

[6] = tested on: L. monocytogenes CBC3; test: Deferred antagonism assay; format: cell-based, Listeria monocytogenes; design: key: + = Enhanced bioactivity relative to control; − = Bioactivity equal to or less than control; NA = no activity evident; details: producing strain; L. mono CBC3
Summary of the method: as §2

[7] = tested on: L. lactis CBC7; test: Deferred antagonism assay; format: cell-based; design: key: + = Enhanced bioactivity relative to control; − = Bioactivity equal to or less than control; NA = no activity evident; details: producing strain
Summary of the method: as §2

[8] = tested on: L. lactis CBC8; test: Deferred antagonism assay; format: cell-based; design: key: + = Enhanced bioactivity relative to control; − = Bioactivity equal to or less than control; NA = no activity evident; details: producing strain
Summary of the method: as §2

[9] = tested on: S. aureus CBC4; test: Deferred antagonism assay; format: cell-based; design: key: + = Enhanced bioactivity relative to control; − = Bioactivity equal to or less than control; NA = no activity evident; details: producing strain
Summary of the method: as §2

[10] = tested on: C. sporogenes CBC5; test: Deferred antagonism assay; format: cell-based, Clostridium sporogenes; design: key: + = Enhanced bioactivity relative to control; − = Bioactivity equal to or less than control; NA = no activity evident; details: producing strain
[11] = tested on: L. plantarum CBC6; test: Deferred antagonism assay; format: cell-based, Lactobacillus plantarum; design: key: + = Enhanced bioactivity relative to control; − = Bioactivity equal to or less than control; NA = no activity evident; details: producing strain
Summary of the method: as §2

[12] = tested on: L. lactis HP; test: Deferred antagonism assay; format: cell-based, L. lactis spp cremoris; details: producing strain
Procedure: Deferred antagonism assays were performed by replicating strains on GM17 or GM17 x-gal agar plates and allowing them to grow overnight before overlaying with either GM17/BHI/TS/MH agar (0.75% w/v agar) seeded with the appropriate indicator strain. Zone size was calculated as the diameter of the zone of clearing minus the diameter of bacterial growth (5 mm) For higher throughput screening of N20PXX, XM21VX, XXK22T and XXX banks deferred antagonism assays were performed by replicating strains using a 96 pin replicator (Boekel) or spotting 5 μl of a fresh overnight culture on GM17 agar plates and allowing them to grow overnight. […] Additional sets of indicators were employed to further assess/reassess the bioactivity of a number of strains. […] For well-diffusion assays molten agar was cooled to 48° C. and seeded with the appropriate indicator strain. The inoculated medium was rapidly transferred into sterile Petri plates in 50 ml volumes, allowed to solidify and dried. […] Bioactivity was expressed as arbitrary units/ml (AU/ml) and calculated as the reciprocal of the highest dilution that gave a definite zone multiplied by the conversion factor (i.e. 20 when 50 μl was used) (Ryan et al., 1996).
In all cases the bioactivity of each variant was assessed by the size of the zone of inhibition in a deferred antagonism assay against various indicator strains. […]

[13] = tested on: indicator strains; test: Deferred antagonism assays, various indicator strains (summary); format: cell-based; details: relative to nisin A-producing control; value = strains listed
Summary of the method: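 Producer strains were replicated on GM17 or GM17 x-gal agar, grown overnight, then overlaid with GM17, BHI, TS or MH soft agar (0.75% w/v) seeded with the indicator strain. Zone size was taken as the clearing diameter minus the diameter of bacterial growth (5 mm).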

[14] = tested on: Staph. aureus ST528; test: Specific activity of purified peptide, equimolar concentrations; format: cell-based
Procedure: (§3) Deferred antagonism assays were performed by replicating strains on GM17 or GM17 x-gal agar plates and allowing them to grow overnight before overlaying with either GM17/BHI/TS/MH agar (0.75% w/v agar) seeded with the appropriate indicator strain. Zone size was calculated as the diameter of the zone of clearing minus the diameter of bacterial growth (5 mm) For higher throughput screening of N20PXX, XM21VX, XXK22T and XXX banks deferred antagonism assays were performed by replicating strains using a 96 pin replicator (Boekel) or spotting 5 μl of a fresh overnight culture on GM17 agar plates and allowing them to grow overnight. […] For well-diffusion assays molten agar was cooled to 48° C. and seeded with the appropriate indicator strain. The inoculated medium was rapidly transferred into sterile Petri plates in 50 ml volumes, allowed to solidify and dried. Wells (4.6 mm in diameter) were then made in the seeded plates. […] Bioactivity was expressed as arbitrary units/ml (AU/ml) and calculated as the reciprocal of the highest dilution that gave a definite zone multiplied by the conversion factor (i.e. 20 when 50 μl was used) (Ryan et al., 1996).

[15] = tested on: Strep. agalactiae ATCC13813; test: as above; format: cell-based
Procedure: as §3

[16] = tested on: Listeria innocua FH2051; test: Co-cultivation assay in GM17; format: cell-based; details: GM17, 30° C.
Procedure: The indicator used for this trial was Listeria innocua FH2051 or L. monocytogenes EGDe. GM17 was co-inoculated with Listeria and the nisin variant producer being tested. […] The culture preparations were incubated at 30° C. Listeria numbers were determined on the basis of viable counts. For this purpose a dilution series were prepared at specific time intervals and plated onto Listeria selective agar base (Oxford formulation) (Oxoid Ltd.).
Assessment of the ability of nisin-variant producing lactococci to inhibit the growth of Listeria in broth: The ability of Listeria to survive in the presence of nisin-producing L. lactis strains was examined using a co-cultivation approach. Initial trials employed Listeria innocua FH2051 as a target.

[17] = tested on: Strep. agalactiae ATCC13813; test: Deferred antagonism assay; format: cell-based; details: chromosomal replacement strains; Strep. agalactiae ATCC 13813

How did the “zone size relative to that of the NZ9800 pCI372nisA control” value (“zone size relative to that” below) [1] turn out when “NisinA N20P (ITSISLCTPGCKTGALMGCPMKTATCHCSIHVSK; not fully specified; also: lantibiotic nisin: dehydrated residues and thioether rings not placed; UniProt P13068 24-57, looked up, variant N20P) [nisin A derivative, hinge substitution N20P]” was run?
Its value is 123%.

What about the “zone size relative to that” value [2] of the same substance?
The value was 125%.

And the “zone size relative to that” value [3]?
Its value is 22%.

And the “Bioactivity relative to control” value [4]?
The value was “−”.

What about the “Bioactivity relative to control” value [5] of the same substance?
Its value is “−”.

What about the “Bioactivity relative to control” value [6] of the same substance?
The value was “+”.

What about the “Bioactivity relative to control” value [7] of the same substance?
The value was “+”.

And the “Bioactivity relative to control” value [8]?
Its value is “−”.

What about the “Bioactivity relative to control” value [9] of the same substance?
Its value is “+”.

And the “Bioactivity relative to control” value [10]?
The value was “+”.

What about the “Bioactivity relative to control” value [11] of the same substance?
The value was “−”.

And the “bioactivity against L. lactis HP relative to control” value [12]?
The value was “enhanced”.

And the “Strain(s) against which the derivative (producing strain) displays enhanced bioactivity” value [13]?
The value was “CBC4, L. monocytogenes CBC3, C. sporogenes CBC5 and L. lactis CBC7”.

And the “increased specific activity relative to nisin A” value [14]?
Its value is 100%.

And the “reduction in specific activity relative to nisin A” value [15]?
Its value is 75%.

And the “impact on growth of FH2051” value [16]?
The value was “reduced its numbers”.

What about the “bacteriocin production/bioactivity relative to L. lactis NZ9700” value [17] of the same substance?
Its value is “enhanced”.
